The NIST ThermoML archive (doi:10.1021/je400310h)
± gives the expanded uncertainty stated by the source.

Test: mn = molality of the nth substance listed, in mol/kg
Conditions: 101 kPa, Liquid, Vibrating tube method

CCC[n+]1ccn(CCO)c1.[Cl-] [1-(2-hydroxylethyl)-3-propylimidazolium chloride] + O
mass density [kg/m3]
Conditions	293.15 K	298.15 K	303.15 K
m1 = 0.01	998.4 ± 0.05	997.35 ± 0.05	995.88 ± 0.05
m1 = 0.0505	999.68 ± 0.05	998.47 ± 0.05	997.08 ± 0.05
m1 = 0.102	1001.01 ± 0.05	999.89 ± 0.05	998.4 ± 0.05
m1 = 0.208	1004.05 ± 0.05	1002.76 ± 0.05	1001.15 ± 0.05
m1 = 0.5535	1012.98 ± 0.06	1011.56 ± 0.06	1009.99 ± 0.06
m1 = 1.175	1027.62 ± 0.07	1025.68 ± 0.07	1023.8 ± 0.07
m1 = 2.103	1046.02 ± 0.09	1043.76 ± 0.09	1041.7 ± 0.09
m1 = 3.23	1063.98 ± 0.12	1061.54 ± 0.12	1058.92 ± 0.12
m1 = 4.772	1082.55 ± 0.15	1079.86 ± 0.15	1077.08 ± 0.15
m1 = 5.992	1093.61 ± 0.18	1090.78 ± 0.17	1087.9 ± 0.17
m1 = 7.003	1101.22 ± 0.19	1098.33 ± 0.19	1095.39 ± 0.19

CCC[n+]1ccn(CC(=O)O)c1.[Cl-] [1-(carboxymethyl)-3-propylimidazolium chloride] + O
mass density [kg/m3]
Conditions	m1 = 0.0302	m1 = 0.0505	m1 = 0.1021	m1 = 0.2084	m1 = 0.5569	m1 = 1.257	m1 = 2.166	m1 = 3.386	m1 = 5.114	m1 = 7.768
293.15 K	999.68 ± 0.1	1000.6 ± 0.1	1002.96 ± 0.1	1007.61 ± 0.11	1021.7 ± 0.11	1046.14 ± 0.11	1071.45 ± 0.12	1097.44 ± 0.14	1123.69 ± 0.17	1150.29 ± 0.2
298.15 K	998.52 ± 0.1	999.44 ± 0.1	1001.71 ± 0.1	1006.08 ± 0.11	1019.83 ± 0.11	1044.05 ± 0.11	1069.11 ± 0.12	1094.76 ± 0.14	1120.74 ± 0.17	1147.15 ± 0.2
303.15 K	997.01 ± 0.11	998 ± 0.1	1000.1 ± 0.1	1004.64 ± 0.11	1018.22 ± 0.11	1041.75 ± 0.11	1066.6 ± 0.12	1091.97 ± 0.14	1117.73 ± 0.17	1143.97 ± 0.2

C[n+]1ccn(CC(=O)O)c1.[Cl-] [1-carboxymethyl-3-methylimidazolium chloride] + O
mass density [kg/m3]
Conditions	m1 = 0.0302	m1 = 0.0505	m1 = 0.1018	m1 = 0.2072	m1 = 0.5443	m1 = 1.214	m1 = 2.041	m1 = 3.094	m1 = 4.466	m1 = 6.375
293.15 K	999.87 ± 0.1	1000.94 ± 0.1	1003.6 ± 0.11	1008.87 ± 0.11	1024.61 ± 0.11	1052.15 ± 0.11	1080.57 ± 0.12	1110.21 ± 0.14	1140.75 ± 0.16	1173 ± 0.19
298.15 K	998.71 ± 0.11	999.76 ± 0.1	1002.36 ± 0.1	1007.5 ± 0.11	1022.95 ± 0.11	1050.32 ± 0.11	1078.44 ± 0.12	1107.83 ± 0.14	1138.14 ± 0.16	1170.21 ± 0.19
303.15 K	997.12 ± 0.11	998.24 ± 0.1	1000.9 ± 0.1	1006.06 ± 0.11	1021.26 ± 0.11	1048.33 ± 0.11	1076.13 ± 0.12	1105.34 ± 0.14	1135.4 ± 0.16	1167.36 ± 0.19
